Source: patent US4269855A, “(3-Alkylamino-2-hydroxypropoxy)-furan-2-carboxylic acid anilides and physiologically tolerated acid addition salts thereof and medicaments containing them” (A. Nattermann & Cie. GmbH, priority 1979, dated 1981)
Structures can show the parent of a compound that is named as a salt.

Legend:
β-receptor [1] = target: T1, β-receptor (Cavia porcellus, UniProt H0W3H1); assay: Inhibition of isoprenalin-induced increase in contractile force, isolated guinea pig left auricle; set-up: species or system guinea pig (Pirbright White); conditions: Bath, isoprenalin 3.2×10^-8 molar, probit analysis, read-out: ED50, inhibition of increase in contractile force induced by isoprenaline
β-receptor [2] = target: T1, β-receptor; assay: Inhibition of isoprenalin-induced increase in pulse rate, isolated guinea pig right auricle; set-up: species or system guinea pig (Pirbright White); conditions: Bath, isoprenalin 5.8×10^-9 molar, probit analysis, read-out: ED50, inhibition of increase in pulse rate induced by isoprenalin
β-receptor [3] = target: β-receptor (Canis lupus familiaris, UniProt P79148); assay: Inhibition of isoprenalin-induced increase in contractile force (dp/dtmax), anaesthetised dogs; type: in vivo, mongrel dogs; conditions: for ED50: dog, anaesthetised dogs, isoprenalin 0.5 μg/kg i.v., determined graphically
Experimental: (§1) The ventricular pressure of mongrel dogs, anesthetized with chloralose-urethane, was determined, together with other circulation parameters, with the aid of a Millar tip catheter (type PC 350 A, Millar Instruments, Houston, Tex.) introduced into the left heart ventricle, and the maximum rate of pressure increase (dp/dtmax) was determined by differentiation (HSE operational amplifier, Hugstetten). This rate serves as a measure of the contractile force.

in vivo = assay: in vivo
Experimental: The acute toxicity was determined on NMRI mice by intravenous or oral administration of increasing doses of the compounds of the invention. The death rates were determined within the 7-day follow-up period and the average lethal dose was determined by probit analysis.

β-receptor [4] = assay: β-receptor blocking action, isolated organs and whole animal (overall statement); conditions: in words
Experimental: as §1

Sequence of β-receptor (Canis lupus familiaris, UniProt P79148) (P79148 whole entry): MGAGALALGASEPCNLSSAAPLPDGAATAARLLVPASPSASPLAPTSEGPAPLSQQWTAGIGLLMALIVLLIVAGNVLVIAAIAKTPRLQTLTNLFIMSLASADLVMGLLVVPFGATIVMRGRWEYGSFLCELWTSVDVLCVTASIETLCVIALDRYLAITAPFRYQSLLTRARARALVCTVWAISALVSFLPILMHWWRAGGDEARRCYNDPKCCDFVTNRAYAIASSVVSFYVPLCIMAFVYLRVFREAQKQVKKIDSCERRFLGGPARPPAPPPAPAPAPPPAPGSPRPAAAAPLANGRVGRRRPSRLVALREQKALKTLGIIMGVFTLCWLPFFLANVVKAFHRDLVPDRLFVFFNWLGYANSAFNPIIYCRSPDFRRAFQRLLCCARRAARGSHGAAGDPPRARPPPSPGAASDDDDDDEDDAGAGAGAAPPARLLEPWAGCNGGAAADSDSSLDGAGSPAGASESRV
T1 sequence (H0W3H1 1-470): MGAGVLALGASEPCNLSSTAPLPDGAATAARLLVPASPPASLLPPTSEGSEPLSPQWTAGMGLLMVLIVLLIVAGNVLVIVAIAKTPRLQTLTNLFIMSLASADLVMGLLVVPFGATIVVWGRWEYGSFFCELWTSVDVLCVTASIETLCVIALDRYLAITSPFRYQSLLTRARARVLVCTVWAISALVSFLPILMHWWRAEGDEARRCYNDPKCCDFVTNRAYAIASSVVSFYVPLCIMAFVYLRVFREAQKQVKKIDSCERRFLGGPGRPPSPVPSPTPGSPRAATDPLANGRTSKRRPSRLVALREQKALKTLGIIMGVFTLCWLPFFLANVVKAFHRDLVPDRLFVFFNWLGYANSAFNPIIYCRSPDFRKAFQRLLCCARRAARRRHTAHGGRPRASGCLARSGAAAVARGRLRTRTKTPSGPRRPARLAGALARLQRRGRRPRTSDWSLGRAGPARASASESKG

SMILES | IC50 (β-receptor [1]) | IC50 (β-receptor [2]) | ED50 (β-receptor [3]; intraduodenal) | ED50 (β-receptor [3]; intravenous) | action when administered intraduodenally (β-receptor [3]; intraduodenal, in words) | selectivity ratio (in vivo; in vivo) | toxicity (in vivo; in words) | LD50 at 168 h (in vivo; mouse, in vivo, iv) | LD50 at 168 h (in vivo; mouse, in vivo, po) | "therapeutic range" quotient (LD50/ED50), times as high as the compounds already known (in vivo; versus propranolol hydrochloride and practolol hydrochloride) | β-receptor blocking action / pharmacological activity (β-receptor [4]) | LD50, acute toxicity (in vivo; mouse, in vivo, iv, 168 h)
CC(C)(C)NCC(O)COc1ccccc1NC(=O)c1ccco1 (centres unmarked) [Example 1, 2'-(2-hydroxy-3-tert.-butylaminopropoxy)-furan-2-carboxylic acid anilide] | 290 nM | 98 nM | 0.11 mg/kg | 0.025 mg/kg | good action | 4560 | very favorable | 55 mg/kg | 502 mg/kg | 1.5-3 times | strong β-receptor blocking action both on isolated organs and on the whole animal | 
CC(=O)Nc1ccc(OCC(O)CNC(C)C)cc1 (centres unmarked) [Practolol Hydrochloride, reference compound] | 2300 nM | 710 nM | 0.9 mg/kg |  |  | 3190 |  |  | 2870 mg/kg |  |  | 148 mg/kg
